Experimental data reported in US5441941A, “1,2-dihydroellipticines with activity against CNS specific cancer” (The United States of America as represented by the …, priority 1993, dated 1995).

Experiments:
NCI-H522 = test: NCI in vitro screen, SRB percent growth, Non-Small Cell Lung Cancer
DMS 273 = test: NCI in vitro screen, SRB percent growth, Small Cell Lung Cancer
A498 = test: NCI in vitro screen, SRB percent growth, Renal Cancer
HOP-92 = test: cells; settings: Homo sapiens
HOP-18 = test: NCI in vitro screen, SRB percent growth, Non-Small Cell Lung Cancer
OVCAR-4 = test: NCI in vitro screen, SRB percent growth, Ovarian Cancer
NCI-H322M = test: NCI in vitro screen, SRB percent growth, Non-Small Cell Lung Cancer
NCI-H226 = test: cells; settings: Homo sapiens
SN12C = test: NCI in vitro screen, SRB percent growth, Renal Cancer
RXF-393 = test: as above
SR = test: NCI in vitro screen, SRB percent growth, Leukemia
[1] = Log10 Concentration -4.0, 100 µM
[2] = Log10 Concentration -7.0, 0.1 µM
[3] = HOP-92, read-out: Percent Growth
[4] = NCI-H226, read-out: Percent Growth

## COc1ccc2[nH]c3c(C)c4c(c(C)c3c2c1)CN(C)C=C4 [Formula VII]
NCI-H522; [1]
  Percent Growth: -46%
NCI-H522; Log10 Concentration -5.0
  Percent Growth: -30%
NCI-H522; Log10 Concentration -6.0, 1 µM
  Percent Growth: 40%
NCI-H522; [2]
  Percent Growth: 91%
NCI-H522; Log10 Concentration -8.0
  Percent Growth: 97%
NCI-H522; PG=0
  TGI: 3.71 µM
NCI-H522; PG=+50
  GI50: 0.626 µM
NCI-H522; read-out: LC-50, PG=-50
  CC50: > 100 µM
DMS 273; PG=0
  TGI: 13.4 µM
DMS 273; PG=+50
  GI50: 0.827 µM
A498; [1]
  Percent Growth: -3%
A498; Log10 Concentration -5.0
  Percent Growth: 54%
A498; Log10 Concentration -6.0, 1 µM
  Percent Growth: 93%
A498; [2]
  Percent Growth: 114%
A498; Log10 Concentration -8.0
  Percent Growth: 105%
A498; PG=0
  TGI: 90.2 µM
A498; PG=+50
  GI50: 11.6 µM
A498; read-out: LC-50, PG=-50
  CC50: > 100 µM
HOP-92; HOP-92
  GI50: 5.97 µM
HOP-92; HOP-92, read-out: LC-50
  CC50: 86.8 µM
HOP-92; [3]
  activity at 0.01 µM: 121%
  activity at 0.1 µM: 100%
  activity at 1 µM: 95%
  activity at 10 µM: 37%
  activity at 100 µM: -56%
HOP-92; HOP-92, read-out: TGI
  IC (TGI): 25.1 µM
HOP-18; [1]
  Percent Growth: -6%
HOP-18; Log10 Concentration -5.0
  Percent Growth: 71%
HOP-18; Log10 Concentration -6.0, 1 µM
  Percent Growth: 121%
HOP-18; [2]
  Percent Growth: 142%
HOP-18; Log10 Concentration -8.0
  Percent Growth: 174%
HOP-18; PG=0
  TGI: 82.8 µM
HOP-18; PG=+50
  GI50: 18.8 µM
HOP-18; read-out: LC-50, PG=-50
  CC50: > 100 µM

## Cc1ccc2[nH]c3c(C)c4c(c(C)c3c2c1)CN(C)C=C4 [Formula XI]
OVCAR-4; [1]
  Percent Growth: -85%
OVCAR-4; Log10 Concentration -5.0
  Percent Growth: -6%
OVCAR-4; Log10 Concentration -6.0, 1 µM
  Percent Growth: 68%
OVCAR-4; [2]
  Percent Growth: 96%
OVCAR-4; Log10 Concentration -8.0
  Percent Growth: 113%
OVCAR-4; PG=0
  TGI: 8.34 µM
OVCAR-4; PG=+50
  GI50: 1.74 µM
OVCAR-4; read-out: LC-50, PG=-50
  CC50: 36.3 µM
NCI-H322M; [1]
  Percent Growth: -100%
NCI-H322M; Log10 Concentration -5.0
  Percent Growth: 10%
NCI-H322M; Log10 Concentration -6.0, 1 µM
  Percent Growth: 99%
NCI-H322M; [2]
  Percent Growth: 139%
NCI-H322M; Log10 Concentration -8.0
  Percent Growth: 133%
NCI-H322M; PG=0
  TGI: 12.3 µM
NCI-H322M; PG=+50
  GI50: 3.55 µM
NCI-H322M; read-out: LC-50, PG=-50
  CC50: 35.1 µM
NCI-H226; NCI-H226
  GI50: 0.329 µM
NCI-H226; NCI-H226, read-out: LC-50
  CC50: 17.4 µM
NCI-H226; [4]
  activity at 0.01 µM: 99%
  activity at 0.1 µM: 83%
  activity at 1 µM: 19%
  activity at 10 µM: -43%
  activity at 100 µM: -71%
NCI-H226; NCI-H226, read-out: TGI
  IC (TGI): 2.02 µM
SN12C; [1]
  Percent Growth: -92%
SN12C; Log10 Concentration -5.0
  Percent Growth: -69%
SN12C; Log10 Concentration -6.0, 1 µM
  Percent Growth: -36%
SN12C; [2]
  Percent Growth: 66%
SN12C; Log10 Concentration -8.0
  Percent Growth: 92%
SN12C; PG=0
  TGI: 0.442 µM
SN12C; PG=+50
  GI50: 0.143 µM
SN12C; read-out: LC-50, PG=-50
  CC50: 2.65 µM
RXF-393; [1]
  Percent Growth: -92%
RXF-393; Log10 Concentration -5.0
  Percent Growth: 9%
RXF-393; Log10 Concentration -6.0, 1 µM
  Percent Growth: 51%
RXF-393; [2]
  Percent Growth: 96%
RXF-393; Log10 Concentration -8.0
  Percent Growth: 99%
RXF-393; PG=0
  TGI: 12.3 µM
RXF-393; PG=+50
  GI50: 1.04 µM
RXF-393; read-out: LC-50, PG=-50
  CC50: 38.5 µM
SR; [1]
  Percent Growth: -42%
SR; Log10 Concentration -5.0
  Percent Growth: 6%
SR; Log10 Concentration -6.0, 1 µM
  Percent Growth: 47%
SR; [2]
  Percent Growth: 86%
SR; Log10 Concentration -8.0
  Percent Growth: 101%
SR; PG=0
  TGI: 13.5 µM
SR; PG=+50
  GI50: 0.846 µM
SR; read-out: LC-50, PG=-50
  CC50: > 100 µM
